The values below come from patent US4748161A, “Triterpenyl esters of organic acids and hypolipidemic agents composed of them” (Amano Pharmaceutical Co., Ltd., priority 1984, dated 1988).

Like-named read-outs stand apart in the source and are kept apart here.

Data set [1] has as its system serum lipids and serum lipid hydroperoxide. Kind of data set: Pharmacological test method B for anti-hyperlipidemic activity (serum lipids, 4 weeks feeding). It counts as in vivo, male Wistar strain rats. On the set-up: AI Diff.: unit not given here. As to conditions: for change in vivo at 1 % in diet: Rattus norvegicus, po, 672 h; for change in vivo at 1 % in diet / AI Diff. / HDL-C Diff. / LPO Diff. / PL Diff. / TG Diff.: versus control group; for TG % of diff. (Table 20) / TG Diff. (Table 20): Table 20, versus control group; for HDL-C rise compared with normal diet group: versus normal diet group. How it is done:
Pharmacological test method B for anti-hyperlipidemic acitivity (the term "method B" was used in the present specification)
(§1) Male Wistar strain rats (100±1 g, each 8 rats were formed into a group except that the control group fed with a hyperlipidemic diet was formed of 16 rats) were used as test animals. A powdery diet (CE-2, supplied by Clea Japan, Inc.) was used as ordinary diet. The hyperlipidemic diet was prepared by fortifying the ordinary diet with cholesterol (1%) and cholic acid (0.5%). Each test compound (1%) for administration was admixed with the hyperlipidemic diet. Each two rats were kept in a cage and given the prescribed diet and water ad libitum. Thus the rats were fed for 4 weeks at a constant temperature of 23±1° C. and a constant R.H. of 55±5%. Finally, the rats were fasted from food except water for 16 hours (from 4 p.m. of the 28th test day to 8 a.m. of the 29th test day), and under anesthesia with pentbarbital sodium (tradename: Nembutal), blood was taken from each rat through the descending abdominal arota. Then, TC, HDL-C, TG, PL, and LPO in the serum were measured in the following manner.
A TC kit-K (supplied by Nippon Shoji Kaisha, Ltd.) was used. The principle of this determination is as follows: The ester of cholesterol in the serum is hydrolyzed with cholesterol-ester hydrolase into free cholesterol and fatty acids. All the free cholesterol is oxidized with cholesterol oxydase to form Δ^4 -cholestenone and hydrogen peroxide. Phenol and 4-aminoantipyrin are oxidatively condensed together by the formed hydrogen peroxide and peroxydase. The produced red quinone coloring matter is measured by colorimetry for absorbance at 500 nm using a spectrophotometer, thereby determining the TC:
The color-developing liquid (3.0 ml) is well mixed with the sample serum (0.02 ml). The mixture once heated at 37° C. for 15 minutes, is measured for absorbance at 500 nm with a spectrophotometer. The found absorbance is denoted by EA. On the other hand, the color-developing liquid (3.0 ml) is well mixed with the standard solution. The mixture is treated and measured for absorbance at 500 nm in the same manner as the above. This found absorbance is denoted by ES. Both EA and ES are determined with reference to the value of the blank test conducted using the color-developing liquid (3.0 ml) alone. [formula]
An HDL-C kit-N (supplied by Nippon Shoji Kaisha, Ltd.) was used. […] (VLDL) and lo density lipoprotein (LDL) in the serum is precipitated by the action of heparin. The precipitate is separated by centrifugation. High density lipoprotein (HDL) is dissolved in the separated supernatant. Esters of cholesterol in this fraction is hydrolyzed with cholesterol-ester hydrolase into free cholesterol and fatty acids. All the free cholesterol is oxidized with cholesterol oxydase to form Δ^4 -cholestenone and hydrogen peroxide. Phenol and 4-aminoantipyrine are oxidatively condensed together by the formed hydrogen peroxide and peroxydase. The produced red quinone coloring matter is measured by colorimetry for absorbance at 500 nm using a spectrophotometer, thereby determining the HDL-C.
A PL kit-K (supplied by Nippon Shoji Kaisha, Ltd.) was used for the determination. Lecithin, sphingomyelin, and lysolecithin are decomposed by phospholipase D into choline and phosphatidic acid, N-acylsphingosyl phosphate, or lysophosphatidic acid, respectively. The resulting choline is quantitatively decomposed by choline oxydase into hydrogen peroxide and betaine. With this hydrogen peroxide, and aid of peroxydase, phenol and 4-aminoantipyrin are condensed into red quinone pigment, then the absorbance at 500 nm of which is measured with a spectrophotometer, thereby determining the PL. […]

Data set [2] is described as follows: Body weight of rats in method B. On the set-up: species or system male Wistar strain rats. Particulars: rat, in vivo. How it is done: as §1
Setting [3] is: 1% in hyperlipidemic diet, 4 weeks.

`COc1ccc(N)cc1C(=O)OC1CCC23CC24CCC2(C)C(C(C)CCC=C(C)C)CCC2(C)C4CCC3C1(C)C` (stereo not shown) [Example 171, cycloartenyl ester of 5-amino-2-methoxybenzoic acid]: the change in vivo at 1 % in diet in data set [1] (read-out: AI % of diff.) is -71.6%. Moreover, the change in vivo at 1 % in diet in data set [1] (read-out: HDL-C % of diff.) turned out to be 51.3%. In data set [1] (read-out: LPO % of diff.), the change in vivo at 1 % in diet is -36%. Moreover, the change in vivo at 1 % in diet in data set [1] (read-out: PL % of diff.) is -33%. In addition, in data set [1] (read-out: TG % of diff.), the change in vivo at 1 % in diet was -19.3%. In addition, in data set [1], the “TG % of diff. (Table 20)” value is -53.0%, the “TG Diff. (Table 20)” value was -221.6 mg/dL, the “AI Diff.” value is -18.02 and the “HDL-C Diff.” value is recorded as “+8.2 mg/dl”. In data set [1], the “LPO Diff.” value is -1.25 nmol/mL, the “PL Diff.” value was -58.4 mg/dL and the “TG Diff.” value is -15.7 mg/dL.
With `CC(C)=CCCC(C)C1CCC2(C)C3CCC4C(C)(C)C(OC(=O)C(C)=Cc5ccc(N)cc5)CCC45CC35CCC12C` (stereo not drawn) [Example 205, Cycloartenyl ester of p-amino-α-methylcinnamic acid], in data set [1] (setting [3]), the “AI [(TC - HDL-C)/(HDL-C)]” value worked out at 4.144, the HDL-C in serum amounted to 37.4 mg/dL, the LPO in serum is 2.02 nmol/mL and the PL in serum turned out to be 113.1 mg/dL. In data set [1] (setting [3]), this compound had a TC in serum of 192.4 mg/dL and a TG in serum of 60.3 mg/dL. For the same compound, in data set [2], the “Body weight during feed period, 1st day” value is listed as 105 ± 3.7 g; the “Body weight during feed period, 8th day” value is on record as 142 ± 9.8 g; the “Body weight during feed period, 15th day” value amounted to 188 ± 13.2 g; the “Body weight during feed period, 22nd day” value is given as 238 ± 19.8 g. In data set [2], the “Body weight during feed period, 28th day” value came out at 267 ± 20.4 g and the “Body weight just before blood sampling, 29th day” value came to 256 ± 19.2 g.
Consider `C=C(CCC(C)C1CCC2(C)C3CCC4C(C)(C)C(OC(=O)C(C)=Cc5ccc(OC(=O)CC)c(OC)c5)CCC45CC35CCC12C)C(C)C` (stereo not drawn) [Example 117, 24-methylenecycloartanyl ester of 3-methoxy-4-propionyloxy-α-methylcinnamic acid], for which the change in vivo at 1 % in diet in data set [1] (read-out: AI % of diff.) was -64.3%. Also, the change in vivo at 1 % in diet in data set [1] (read-out: HDL-C % of diff.) stood at 63.1%. In data set [1] (read-out: LPO % of diff.), the change in vivo at 1 % in diet is -24.5%. Moreover, in data set [1] (read-out: PL % of diff.), the change in vivo at 1 % in diet was -28.3%. The change in vivo at 1 % in diet in data set [1] (read-out: TG % of diff.) was -21.6%. Besides, in data set [1], the “TG % of diff. (Table 20)” value is given as -37.7%, the “TG Diff. (Table 20)” value was -157.9 mg/dL, the “AI Diff.” value is on record as -16.17 and the “HDL-C Diff.” value is “+10.1 mg/dl”. Also, in data set [1], the “LPO Diff.” value is -0.85 nmol/mL, the “PL Diff.” value is -50.0 mg/dL and the “TG Diff.” value was -17.6 mg/dL.
In the case of `COc1cc(C=CC(=O)OC2CCC34CC35CCC3(C)C(C(C)CCC(C)=C(C)C)CCC3(C)C5CCC4C2(C)C)ccc1N` (stereo not shown) [Example 178, Cyclobranyl ester of 4-amino-3-methoxycinnamic acid], the change in vivo at 1 % in diet in data set [1] (read-out: AI % of diff.) was -88.9%. Moreover, in data set [1] (read-out: HDL-C % of diff.), the change in vivo at 1 % in diet is 215%. Besides, the change in vivo at 1 % in diet in data set [1] (read-out: LPO % of diff.) is -36.6%. The change in vivo at 1 % in diet in data set [1] (read-out: PL % of diff.) was -28.2%. For the same compound, the change in vivo at 1 % in diet in data set [1] (read-out: TG % of diff.) was -28%. Moreover, in data set [1], the “TG % of diff. (Table 20)” value is on record as -54.2%, the “TG Diff. (Table 20)” value is -226.9 mg/dL, the “AI Diff.” value was -22.35 and the “HDL-C Diff.” value was “+34.4 mg/dl”. Moreover, in data set [1], the “LPO Diff.” value was -1.27 nmol/mL, the “PL Diff.” value was -49.8 mg/dL, the “TG Diff.” value is -22.8 mg/dL and the “HDL-C rise compared with normal diet group” value was “remarkable rises”.
As for `CCCOc1ccc(N)cc1C=C(C)C(=O)OC1CCC23CC24CCC2(C)C(C(C)CCC=C(C)C)CCC2(C)C4CCC3C1(C)C` (stereo not drawn) [Example 195, Cycloartenyl ester of 5-amino-2-propoxy-α-methylcinnamic acid], the change in vivo at 1 % in diet in data set [1] (read-out: AI % of diff.) was -88.3%. Further, in data set [1] (read-out: HDL-C % of diff.), the change in vivo at 1 % in diet was determined as 211%. The change in vivo at 1 % in diet in data set [1] (read-out: LPO % of diff.) was -37.2%. Also, the change in vivo at 1 % in diet in data set [1] (read-out: PL % of diff.) was -34.2%. For the same compound, the change in vivo at 1 % in diet in data set [1] (read-out: TG % of diff.) is -28.9%. Moreover, in data set [1], the “TG % of diff. (Table 20)” value was -53.3%, the “TG Diff. (Table 20)” value is -223.1 mg/dL, the “AI Diff.” value is -22.22 and the “HDL-C Diff.” value was “+33.7 mg/dl”. In addition, in data set [1], the “LPO Diff.” value is -1.29 nmol/mL, the “PL Diff.” value is -60.4 mg/dL, the “TG Diff.” value is -23.5 mg/dL and the “HDL-C rise compared with normal diet group” value is listed as “remarkable rises”.
For the compound `C=C(CCC(C)C1CCC2(C)C3CCC4C(C)(C)C(OC(=O)C(C)=Cc5cccc(N)c5)CCC45CC35CCC12C)C(C)C` (stereo not drawn) [Example 213, 24-Methylenecycloartanyl ester of m-amino-α-methylcinnamic acid], in data set [1] (read-out: AI % of diff.), the change in vivo at 1 % in diet is -93%. In addition, the change in vivo at 1 % in diet in data set [1] (read-out: HDL-C % of diff.) is 328%. For the same compound, in data set [1] (read-out: LPO % of diff.), the change in vivo at 1 % in diet is -38.9%. The change in vivo at 1 % in diet in data set [1] (read-out: PL % of diff.) was -34.8%. Also, the change in vivo at 1 % in diet in data set [1] (read-out: TG % of diff.) is -29.2%. In data set [1], the “TG % of diff. (Table 20)” value is reported as -54.7%, the “TG Diff. (Table 20)” value was -229.0 mg/dL, the “AI Diff.” value is -23.38 and the “HDL-C Diff.” value is listed as “+52.4 mg/dl”. In data set [1], the “LPO Diff.” value was -1.35 nmol/mL, the “PL Diff.” value was -61.5 mg/dL, the “TG Diff.” value is -23.7 mg/dL and the “HDL-C rise compared with normal diet group” value is on record as “remarkable rises”.
For the compound `COc1ccc([N+](=O)[O-])cc1C(=O)OC1CCC23CC24CCC2(C)C(C(C)CCC=C(C)C)CCC2(C)C4CCC3C1(C)C` (stereo not shown) [Example 170, cycloartenyl ester of 2-methoxy-5-nitrobenzoic acid], the change in vivo at 1 % in diet in data set [1] (read-out: AI % of diff.) was -74.9%. The change in vivo at 1 % in diet in data set [1] (read-out: HDL-C % of diff.) is 123%. In addition, in data set [1] (read-out: LPO % of diff.), the change in vivo at 1 % in diet was -14.1%. Also, the change in vivo at 1 % in diet in data set [1] (read-out: PL % of diff.) was -28.9%. Also, the change in vivo at 1 % in diet in data set [1] (read-out: TG % of diff.) is -21.9%. Further, in data set [1], the “TG % of diff. (Table 20)” value is listed as -37.5%, the “TG Diff. (Table 20)” value was -157.0 mg/dL, the “AI Diff.” value is reported as -18.83 and the “HDL-C Diff.” value is on record as “+19.7 mg/dl”. In addition, in data set [1], the “LPO Diff.” value was -0.49 nmol/mL, the “PL Diff.” value is -51.1 mg/dL, the “TG Diff.” value was -17.8 mg/dL and the “HDL-C rise compared with normal diet group” value was “remarkable rises”.
For `CCC(=O)Oc1ccc(C=C(C)C(=O)OC2CCC34CC35CCC3(C)C(C(C)CCC=C(C)C)CCC3(C)C5CCC4C2(C)C)cc1OC` (stereo not drawn) [Example 113, cycloartenyl ester of 3-methoxy-4-propionyloxy-α-methyl cinnamic acid], in data set [1] (read-out: AI % of diff.), the change in vivo at 1 % in diet is -63.5%. In data set [1] (read-out: HDL-C % of diff.), the change in vivo at 1 % in diet worked out at 55.6%. Also, the change in vivo at 1 % in diet in data set [1] (read-out: LPO % of diff.) was -12.1%. In data set [1] (read-out: PL % of diff.), the change in vivo at 1 % in diet is -29.7%. The change in vivo at 1 % in diet in data set [1] (read-out: TG % of diff.) was -25.7%. In data set [1], the “TG % of diff. (Table 20)” value is -39.4%, the “TG Diff. (Table 20)” value was -164.7 mg/dL, the “AI Diff.” value is -15.96 and the “HDL-C Diff.” value is “+8.9 mg/dl”. For the same compound, in data set [1], the “LPO Diff.” value is -0.42 nmol/mL, the “PL Diff.” value was -52.5 mg/dL and the “TG Diff.” value is -20.9 mg/dL.
